Source: patent US20050209339A1, “Methods for the treatment of sinusitis” (priority 2002, published 2005)

Experiments:
[1] = system: chronic rhinosinusitis; assay: double-blind placebo-controlled clinical trial in chronic rhinosinusitis; format: in vivo, human; settings: 625 mg terbinafine base equivalent as hydrochloride orally once daily for 6 weeks, versus placebo, patients
Procedure: A prospective, double-blind, parallel-group, multi-center, placebo-controlled study comparing the safety and efficacy of 625 mg of terbinafine base equivalent as hydrochloride daily, or a molar equivalent in other acid addition salt or free base form, for 6 weeks, versus placebo in the treatment of chronic rhinosinusitis is performed. The study duration is a total of 18 weeks and consists of three periods: a) screening (3 weeks, from week −3 to −1); b) treatment (6 weeks, from baseline of treatment week to week +6); and c) follow-up assessment (9 weeks, from week +7 to +15).
Sixty patients, male and female, between the age of 18 and 65 years, are randomized to receive six weeks of terbinafine therapy or placebo.
Additional inclusion criteria for admission to the study is as follows: • Patients with signs and symptoms of chronic non-invasive rhinosinusitis (CRS) for at least 3 months prior to screening. […]

[2] = system: molds and dimorphic fungi, pathogenic yeasts of the genera Pityrosporum, Candida and Rhodotorula; settings: many pathogenic yeasts (Pityrosporum, Candida, Rhodotorula); cited from earlier work
[3] = system: ergosterol biosynthesis (squalene epoxidase); settings: blocks squalene epoxidase; cited from earlier work

In the case of `CN(C/C=C/C#CC(C)(C)C)Cc1cccc2ccccc12` [Terbinafine], the “efficacy relative to primary (CT total opacification score) and secondary variables” value [1] is listed as “therapeutically effective regimen”, the activity in vitro [2] is listed as “active in vitro” and the “inhibition of ergosterol biosynthesis” value [3] is listed as “potent inhibitor”.
